{"source": "EPA's ToxValDB 9.5 (doi:10.2903/j.efsa.2010.1822)", "key": {"Apis mellifera": {"test_system": "Apis mellifera", "conditions": "acute; duration: 48 hours; dermal; mortality"}, "Bibionidae": {"test_system": "Bibionidae", "conditions": "chronic/long-term; duration: 28 days"}, "Coturnix japonica": {"test_system": "Coturnix japonica", "conditions": "reproduction developmental"}, "Oncorhynchus mykiss": {"test_system": "Oncorhynchus mykiss", "conditions": "chronic/long-term; duration: 28 days; other"}, "Anas platyrhynchos": {"test_system": "Anas platyrhynchos", "conditions": "short-term; oral; feed; mortality"}, "Lepomis macrochirus": {"test_system": "Lepomis macrochirus", "conditions": "acute; duration: 96 hours; mortality"}, "Hypoaspis aculeifer": {"test_system": "Hypoaspis aculeifer", "conditions": "chronic/long-term"}, "Canidae": {"test_system": "Canidae", "conditions": "chronic; duration: 52 weeks; oral; Dog Other; histopathology: nonneoplastic"}, "Colinus virginianus": {"test_system": "Colinus virginianus", "conditions": "acute; oral; mortality"}, "Daphnia magna": {"test_system": "Daphnia magna", "conditions": "chronic/long-term; duration: 21 days; reproduction"}, "Aphidius rhopalosiphi": {"test_system": "Aphidius rhopalosiphi", "assay": "LR50; higher = less toxic", "conditions": "not reported; mortality"}}, "data": [{"smiles": "COC(=O)[N-]S(=O)(=O)c1ccc(N)cc1.[Na+]", "note": "[Asulam-sodium]", "values": [{"measurement": "LD50", "setting": "Apis mellifera", "result": "> 100", "unit": "µg/piece"}, {"measurement": "NOEC", "setting": "Bibionidae", "result": 91.3, "unit": "mg/L"}, {"measurement": "NOAEC", "setting": "Coturnix japonica", "result": 65, "unit": "mg/kg-day"}, {"measurement": "NOEL", "setting": "Coturnix japonica", "result": 19, "unit": "mg/kg-day"}, {"measurement": "NOEC", "setting": "Oncorhynchus mykiss", "result": 119, "unit": "mg/L"}, {"measurement": "LD50", "setting": "Anas platyrhynchos", "result": "> 22700", "unit": "mg/kg-day"}, {"measurement": "LC50", "setting": "Lepomis macrochirus", "result": "> 91.3", "unit": "µg/mL"}, {"measurement": "LC50", "setting": "Tagia sp.; acute, duration: 14 days, mortality", "result": 1000, "unit": "mg/kg"}, {"measurement": "NOEC", "setting": "Tagia sp.; chronic/long-term, duration: 56 days", "result": 181, "unit": "mg/kg"}, {"measurement": "NOEC", "setting": "Hypoaspis aculeifer", "result": 4370, "unit": "mg/kg"}, {"measurement": "NOAEL", "setting": "Canidae", "result": 100, "unit": "mg/kg-day"}, {"measurement": "LD50", "setting": "Colinus virginianus", "result": "> 1830", "unit": "mg/kg"}, {"measurement": "LD50", "setting": "Rattus norvegicus; acute, oral, mortality", "result": "> 4560", "unit": "mg/kg"}, {"measurement": "NOAEL", "setting": "Rattus norvegicus; chronic, duration: 2 years, hematological", "result": 36, "unit": "mg/kg-day"}, {"measurement": "NOEL", "setting": "Rattus norvegicus; reproduction developmental, reproduction", "result": 46, "unit": "mg/kg-day"}, {"measurement": "NOEC", "setting": "Daphnia magna", "result": 6.4, "unit": "mg/L"}, {"measurement": "LR50", "setting": "Aphidius rhopalosiphi", "result": 3090, "unit": "mL/ha"}]}]}
